The values below are quoted from earlier work in patent US11311591B2, “Use of copaifera oleoresin in pathologies of the prostate” (PIERRE FABRE MEDICAMENT, priority 2017, dated 2022).

Data set [1] deals with T1, 5αR1 (Homo sapiens, UniProt P18405).
T1 sequence (P18405 1-259): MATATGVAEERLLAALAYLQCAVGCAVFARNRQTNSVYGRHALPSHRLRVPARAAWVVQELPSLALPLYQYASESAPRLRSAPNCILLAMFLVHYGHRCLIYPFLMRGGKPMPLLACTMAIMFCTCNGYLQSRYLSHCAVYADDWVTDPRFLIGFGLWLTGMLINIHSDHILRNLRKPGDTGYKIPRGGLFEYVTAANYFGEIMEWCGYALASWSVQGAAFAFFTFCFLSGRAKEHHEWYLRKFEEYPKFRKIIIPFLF

Data set [2] relates to serum dihydrotestosterone.
In data set [3] the target is HSP27 (Homo sapiens, UniProt P04792). Particulars: prior art, Phytochemistry Letters 10 (2014).
Chain of HSP27 (P04792 whole entry): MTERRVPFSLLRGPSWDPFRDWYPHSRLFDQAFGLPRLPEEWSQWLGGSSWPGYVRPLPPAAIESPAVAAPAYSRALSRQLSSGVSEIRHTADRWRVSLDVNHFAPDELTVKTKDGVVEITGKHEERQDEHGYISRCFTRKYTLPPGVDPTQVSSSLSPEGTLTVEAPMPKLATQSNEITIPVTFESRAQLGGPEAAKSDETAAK

In general, IC50 refers to the concentration that inhibits the measured activity by half. As to `CC(C)(C)NC(=O)[C@H]1CC[C@H]2[C@@H]3CC[C@H]4NC(=O)C=C[C@]4(C)[C@H]3CC[C@]12C` [Finasteride], the IC50 in data set [1] was 0.36 µM. Also, the “reduction of mean serum dihydrotestosterone levels” value in data set [2] was 70.8%. In the case of `C[C@]12C=CC(=O)N[C@@H]1CC[C@@H]1[C@@H]2CC[C@]2(C)[C@@H](C(=O)Nc3cc(C(F)(F)F)ccc3C(F)(F)F)CC[C@@H]12` [dutasteride], in data set [1], the IC50 was 0.006 µM. Besides, the “reduction of mean serum dihydrotestosterone levels” value in data set [2] was 94.7%. With `CC1CCC2(C)C(C(=O)O)=CCCC2C1(C)CCc1ccoc1` (centres unmarked) [hardwickiic acid, Hardwickiic acid], in data set [3], the “inhibition of HSP27 (in words)” value was “inhibits HSP27”.
